3 molecules from patent publication US20260258035A1, “FIVE-MEMBERED AND SIX-MEMBERED NITROGEN-CONTAINING COMPOUND, AND INTERMEDIATE, PREPARATION METHOD AND USE THEREOF” (HANGZHOU SYNRX THERAPEUTICS BIOMEDICAL TECHNOLOGY CO., LTD., priority 2022, published 2026) can be followed below.

Data set [1] can be described thus: Solubility assay (FaSSGF / FaSSIF). The format is physicochemical. The conditions noted are these: kinetic from dmso stock, 2 h at 25° C. On the procedure:
1). Preparation of Solutions:
The FaSSGF solution was prepared as follows: • a) preparation of FaSSGF buffer: dissolve 2.0 g of NaCl as the raw material in about 0.9 L of purified water; • b) adjustment of the pH of the buffer: adjust the pH of the buffer to 1.6 with 1N HCL, and replenish the buffer with purified water to the volume of 1 L; and • c) preparation of FaSSGF solution by addition of FaSSGF powder: add 0.06 g of the FaSSGF powder to about 0.5 L of the buffer, stir until the powder was completely dissolved, and make up for the volume (1 L) with the buffer.
The FaSSIF solution was prepared as follows: • a) preparation of FaSSIF buffer: dissolve 0.42 g of NaOH, 3.44 g of anhydrous NaH2PO4, and 6.19 g of NaCl as raw materials in about 0.9 L of purified water; • b) adjustment the pH of the buffer: adjust the pH of the buffer to 6.5 with 1 N NaOH or 1 N HCL, and replenish the buffer with purified water to the volume of 1 L; and • c) preparation of FaSSIF solution by addition of FaSSIF powder: add 2.24 g of the FaSSIF powder to about 0.5 L of the buffer, stir until the powder was completely dissolved, and make up for the volume (1 L) with the buffer.
2). Preparation of the Solution of Control Compound:
The control compound was weighed and dissolved in DMSO to 10 mM to obtain a stock solution.
3) Preparation of the Solution of Compound to be Tested:
The compound to be tested was formulated into a 10 mM DMSO stock solution.
4) Preparation of Internal Standard Solution:
a) The internal standard was weighed and dissolved in DMSO to 10 mM to obtain an internal standard stock solution (ISTD stock solution).
b) The internal standard stock solution was diluted to 500 nM (Tolbutamide) with an ACN:methano mixture (volume ratio: 1:1) to obtain a quenching solution.
a) The FaSSGF solution at pH 1.6 and the FaSSIF solution at pH 6.5 were pre-warmed; and then, the compound was injected into the buffer.
Once done, the samples were centrifuged at 12,000 rpm for 10 min, and the supernatant was transferred to a new tube. The supernatant was diluted 10-fold and 100-fold with the FaSSGF solution at pH 1.6 or the FaSSIIF solution at pH 6.5. 20 μL of each sample (1×, 10×, 100× and standard curve) was added to 500 μL of the IS solution. The resulting mixture was vortexed vigorously for 1 min and centrifuged at 4,500 rpm for 15 min at 4° C. 150 μL of the supernatant was transferred for LC-MS/MS sample analysis.

Another data set has as its target T1, PXR (Homo sapiens, UniProt O75469).
T1 construct: host or cells: DPX2 (HepG2)
T1 sequence (O75469 1-434): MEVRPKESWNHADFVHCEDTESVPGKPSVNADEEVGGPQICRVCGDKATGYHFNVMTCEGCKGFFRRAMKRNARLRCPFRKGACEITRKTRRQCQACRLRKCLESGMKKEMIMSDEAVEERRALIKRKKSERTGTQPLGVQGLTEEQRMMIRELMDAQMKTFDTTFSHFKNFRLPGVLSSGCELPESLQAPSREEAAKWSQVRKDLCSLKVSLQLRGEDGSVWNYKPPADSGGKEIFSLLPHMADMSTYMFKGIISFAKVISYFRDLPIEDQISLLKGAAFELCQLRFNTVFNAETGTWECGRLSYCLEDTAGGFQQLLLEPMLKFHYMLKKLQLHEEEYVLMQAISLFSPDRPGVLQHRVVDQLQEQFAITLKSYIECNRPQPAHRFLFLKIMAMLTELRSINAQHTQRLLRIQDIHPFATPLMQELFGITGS
Kind of data set: PXR assay (DPX2 luciferase reporter cells). It is filed as cell-based. The conditions noted are these: 24 h; for PXR Activation @30 uM (% Ctrl): positive control rifampicin. As for the experimental part:
1) Information of Cell Line
DPX2 (HepG2 cells stably transfected with PXR and luciferase reporter) cells were purchased from Puracyp Inc (Carlsbad, CA).
2) Experimental Procedures a) Reagents and Consumables
The DPX2 cells were cultured in the growth medium containing 1000 fetal bovine serum. The DPX2 cells in a T-75 flask were cultured in the […] incubator at 37° C. with 950% relative humidity, and digested when the cells grew to cover 80-90% of the bottom of the flask.
The surface layer of the T-75 cultured cells was washed with 10 mL of PBS; PBS was pipetted; 3-5 mL of tryp sin was added; the cells were digested at 37° C. for 5 minutes or until the cells were digested to be suspended; and excessive medium containing fetal bovine serum was added to stop trypsinization. The cell suspension was transferred to a conical-bottomed centrifuge tube and centrifuged at 150 g rpm for 5 minutes at room temperature; the supernatant was carefully pipetted; and the cells were resuspended with the treatment medium, with the concentration adjusted to 3.2×10^5 cells/mL (incubation time: 24 hours, plate seeding density: […]). 25 μL of the cell suspension was added to each well of the 384-well cell culture plate.
The cell culture plate was placed and cultured for 24 h in the […] incubator with 9500 humidity at 37° C. c) Formulation of Compound
The stock solution of each of 1000× test compound, the positive control (rifampicin), and the negative control (propranolol) was prepared with DMSO. The final concentrations of the positive control (rifampicin) were 1 μM and 10 μM, and the final concentration of the negative control (propranolol) was 10 μM. The final concentrations of the test compound were 10 μM, 1 μM, 0.1 μM, or EC50 (30 μM, 10 μM, 3 μM, 1 μM, 0.3 μM, 0.1 μM). The final concentration of DMSO was 0.10. The cell culture plate was taken out from the incubator, and 25 nL of the stock solution of the positive control, negative control or test compound was directly added with Echo, each with three parallel concentrations. The cell culture plate was placed in the incubator and continued to be incubated for 24 h. Before starting the assay with the substrate, the cell morphology and the monolayer integrity were checked to ensure that the monolayer was of acceptable research quality. […]
d) Quantitative Detection with PXR Activation
After 24 hours of dosing, the culture could be quantitatively detected with PXR activation. The CellTiter-Fluor™ Cell Viability Assay Kit and One-Glo Luciferase reagent were equilibrated to room temperature. The GF-AFC substrate (10 μL) was added to the assay buffer (10 ml) to develop a 2× reagent, which was then diluted into a 1× reagent with 10 ml of PBS. The ONE-Glo Luciferase substrate was added to the ONE-Glo Luciferase assay buffer. The culture plate was taken out from the incubator; the medium was discarded; 1× of CellTiter-Fluor™ reagent was poured into the loading slot; 25 μL of reagent were added per well to the culture plate with a pipetting workstation; and the culture plate was then incubated in the incubator for 30 minutes. The cell culture plate was taken out from the incubator, and cooled slightly to room temperature; and the fluorescence value was determined with a fully automatic quantitative microplate reader, with the excitation light of 400 nm and the emission light of 505 nm. The ONE-Glo reagent was poured into the loading slot, with 25 μL per well, and the resulting mixture was gently mixed in the plate, and incubated at room temperature for 5 minutes to determine the luminescence value.
In general terms: In a reporter assay the amount or activity of a reporter protein is the signal.

In the next data set the test system is HCC1806. The experiment in a line: Cell viability assay (CellTiter-Glo). The format is cell-based, Human. Conditions: HCC1806, 7 days, CellTiter-Glo, read-out: IC50 (nM) in cell viability assay. (In ATP-based viability assays light output follows the ATP content of the culture.)
Another data set deals with PARG (Homo sapiens, UniProt Q86W56). The experiment in a line: Biochemical assay (PARG, TFMU-ADPr substrate). Conditions: PARG, TFMU-ADPr substrate.
In data set [2] the target is PARG (poly ADP-ribonal hydrolase) (Homo sapiens, UniProt Q86W56). Kind of data set: Biochemical assay (PARG, TFMU-ADPr substrate). The conditions noted are these: PARG, TFMU-ADPr substrate.
The mark [3] stands for this setting: fassgf or other biorelevant, FaSSGF solution pH 1.6, 100 μM from DMSO stock, read-out: FaSSGF solubility.
Setting [4] is: FaSSIF solution pH 6.5, 100 μM from DMSO stock, read-out: FaSSIF solubility.

Values after ≈ are worked out from the molar mass of the structure shown. Read-outs that look alike come from different tables or passages of the source.

Chain of PARG (Q86W56 whole entry): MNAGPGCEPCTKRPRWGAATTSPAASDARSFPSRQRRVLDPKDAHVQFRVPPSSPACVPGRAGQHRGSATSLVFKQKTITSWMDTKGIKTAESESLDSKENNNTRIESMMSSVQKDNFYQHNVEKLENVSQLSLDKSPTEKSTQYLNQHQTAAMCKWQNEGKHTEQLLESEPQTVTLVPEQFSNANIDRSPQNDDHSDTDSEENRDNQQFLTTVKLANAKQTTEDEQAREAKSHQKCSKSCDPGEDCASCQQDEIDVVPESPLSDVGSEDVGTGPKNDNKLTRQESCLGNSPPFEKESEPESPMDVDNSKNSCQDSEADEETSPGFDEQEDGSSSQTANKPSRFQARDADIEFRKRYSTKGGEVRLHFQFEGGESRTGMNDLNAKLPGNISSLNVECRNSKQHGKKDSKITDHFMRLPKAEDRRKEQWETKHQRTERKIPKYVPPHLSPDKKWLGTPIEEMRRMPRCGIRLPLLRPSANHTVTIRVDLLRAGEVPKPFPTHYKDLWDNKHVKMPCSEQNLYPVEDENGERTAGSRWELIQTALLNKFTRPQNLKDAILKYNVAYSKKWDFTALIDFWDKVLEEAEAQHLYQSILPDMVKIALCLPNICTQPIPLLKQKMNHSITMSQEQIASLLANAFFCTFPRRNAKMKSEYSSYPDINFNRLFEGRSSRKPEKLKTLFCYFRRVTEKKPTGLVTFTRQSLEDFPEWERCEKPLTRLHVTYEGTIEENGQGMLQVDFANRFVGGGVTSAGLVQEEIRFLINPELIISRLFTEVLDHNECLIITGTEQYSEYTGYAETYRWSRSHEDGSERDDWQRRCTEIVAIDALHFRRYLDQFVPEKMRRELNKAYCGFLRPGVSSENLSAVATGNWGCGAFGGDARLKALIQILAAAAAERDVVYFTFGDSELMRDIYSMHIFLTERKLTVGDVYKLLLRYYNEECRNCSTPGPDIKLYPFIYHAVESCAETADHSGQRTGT
Chain of PARG (poly ADP-ribonal hydrolase) (Q86W56 whole entry): as above

What is called solubility is the dissolved amount per volume that the medium holds. What is called IC50 is the point on the concentration scale where inhibition reaches its midpoint. With `N#CC1(NS(=O)(=O)c2cc(N3CCN(C(=O)C4CNC4)CC3)c3cnc(-c4nnc(C(F)(F)F)s4)n3c2)CC1` [Example 251, 8-(4-(azetidine-3-carbonyl)piperazin-1-yl)-N-(1-cyanocyclopropyl)-3-(5-(trifluoromethyl)-1,3,4-thiadiazol-2-yl)imidazo[1,5-a]pyridine-6-sulfonamide], the values for the solubility at 2 h in data set [1] (setting [3]) and in data set [1] (setting [4]) were 80.6 µM (≈ 46.9 µg/mL) and 78.1 µM (≈ 45.4 µg/mL), respectively. Also, the “PXR Activation @30 uM (Fold)” value at PXR worked out at 1.5 Fold. At PXR, the “PXR Activation @30 uM (% Ctrl)” value worked out at 11 % Ctrl. Also, the half-inhibitory concentration (IC50) with HCC1806 (Homo sapiens, HCC1806, 168 h) worked out at 8780 nM; at PARG, 6.03 nM.
Regarding `CC(C)C(=O)N1CCN(c2cc(S(=O)(=O)NC(C)C(F)(F)F)cn3c(-c4nnc(C(F)F)s4)ncc23)CC1` (stereo not shown) [Example 35, 3-(5-(difluoromethyl)-1,3,4-thiadiazol-2-yl)-8-(4-isobutyrylpiperazin-1-yl)-N-(1,1,1-trifluoropropan-2-yl)imidazo[1,5-a]pyridine-6-sulfonamide], the IC50 in data set [2] turned out to be 128 nM.
In the case of `N#CC1(NS(=O)(=O)c2cc(N3CCN(C(=O)C4CCO4)CC3)c3cnc(-c4nnc(C(F)(F)F)s4)n3c2)CC1` (stereo not shown) [Example 236, N-(1-cyanocyclopropyl)-8-(4-(oxetane-2-carbonyl)piperazin-1-yl)-3-(5-(trifluoromethyl)-1,3,4-thiadiazol-2-yl)imidazo[1,5-a]pyridine-6-sulfonamide], the solubility at 2 h in data set [1] (setting [3]) is 75.7 µM (≈ 44.1 µg/mL); in data set [1] (setting [4]) it was 82.6 µM (≈ 48.1 µg/mL). Besides, the “PXR Activation @30 uM (Fold)” value on PXR was determined as 1.5 Fold. Further, the “PXR Activation @30 uM (% Ctrl)” value at PXR turned out to be 7 % Ctrl. Moreover, the results for the IC50 in the data set on HCC1806 and against PARG were 1100 nM and 3.8 nM, respectively.
